In publication PMC3183052, “Immunoprotectivity of HLA-A2 CTL Peptides Derived from Respiratory Syncytial Virus Fusion Protein in HLA-A2 Transgenic Mouse” (PLoS ONE, 2011):

Columns and labels:
[1] = tested on: splenocytes from HLA-A*0201 transgenic C57BL/6 mice; experiment: IL-2 ELISPOT of splenocytes restimulated with peptide; assay type: cell-based, mouse; details: restimulated with 2 µg peptide, representative of two experiments, five mice per group; for IL-2 ELISPOT, RSV: splenocytes of HLA-Tg B6 mice primed and boosted i.n. with 10^4 pfu RSV-B1; for IL-2 ELISPOT, rAd-F0: splenocytes of HLA-Tg B6 mice primed and boosted i.n. with 10^7 pfu rAd-F0
Method: (§1) To screen the immunodominance of epitopic peptide in the induction of RSV-F specific Th1/Th2 expression, HLA-A*0201 transgenic C57BL/6 mice were anesthetized with isoflurane and immunized with 1×10^7 pfu/50 µL of rAd-F0 or rAd-LacZ or 1×10^4 live RSV B1 via the intranasal (i.n.) route. Twenty days later, the mice were given booster immunization i.n. with the same dose. After 10 days of boost, mice were sacrificed and splenocytes were isolated for the cytokine ELISPOT assay. For peptide-based vaccination, transgenic mice were immunized subcutaneously (s.c.) with 50 µg of the individual synthetic peptides emulsified in 25 µL of incomplete Freund's adjuvant (IFA) (Sigma-Aldrich) and then boosted after 10 days s.c. with the same dose of the respective peptides mixed with IFA. Mice were sacrificed 7 days after the booster and splenocytes were isolated for in vitro peptide-restimulation. For challenge studies, 10^7 pfu of live RSV-B1 was administered i.n. seven days after the booster immunization with peptide vaccines. Mice were sacrificed on day 4 post-challenge and the lung tissues were collected and subjected to further analysis by flow cytometry, ELISA, CTL assay and immunohistochemistry. Mice body weight was monitored daily.
(§2) […] RBC-free splenocyte suspensions prepared from the individual mice were seeded in individual wells of 96-well filtration plates (Millipore) precoated with capturing monoclonal antibodies for murine IL-2, IL-4 or IFN-γ (0.5 µg/ well) (eBioscience) and blocked with conditioned medium (CM) for 1 hour at room temperature. The splenocytes were added with the individual RSV F 9-mer synthetic peptides (2 µg each) or GLC-9 dissolved in CM (100 µL). The splenocytes added with Con A (10 µg/mL) were used as positive control. Unstimulated splenocytes were used as negative control. The plates were kept in a 37°C incubator equilibrated with 5% CO2 for 48 hours. The individual wells of the ELISPOT plates were washed three times with washing buffer (0.05% tween20 in PBS, PBS-T), and then 0.2 µg of the corresponding biotinylated detection monoclonal antibodies specific for IL-2, IL-4 and IFN-γ were added to detect the respective cytokines. After 2 hours of incubation at room temperature, the plates were washed and 100 µl of streptavidin-alkaline phosphatase (1∶ 250 dilution) was added to the individual wells, and the plates were incubated at room temperature for 45 minutes. Finally, the plates were washed four times with the wash buffer, and 100 µl of AEC (3-amine-9-ethylcarbazole, Sigma-Aldrich) substrate was added to each well and allowed to react for 30 minutes at room temperature in the dark. The plates were then washed with water, air-dried overnight, and the spots per well were scored using the immunospot counting reader (C.T.L. IMMUNOSPOT, CELLULAR TECHNOLOGY LTD). Results were expressed as the number of cytokine-secreting cells per 5×10^5 splenocytes seeded in the initial culture.
(§3) Figure 1 Induction of IFN-γ and IL-2 in splenocytes from RSV F peptide immunized HLA-A*0201 transgenic mice upon secondary recall. Splenocytes harvested on day 30 from HLA-A-Tg B6 mice primed and boosted at 20 days interval intranasally with 10^7 pfu of rAd-F0 (□) or 10^4 pfu of RSV-B1 (▪)were restimulated with 2 µg of the individual RSV F peptide or 10 µg/ml Con A for 5 days in the presence of murine IL-2 . After stimulation, 5×10^5 splenocytes were seeded to anti-IFN-γ (A) or anti-IL-2 (B) capture antibody coated ELISPOT plates for 2 days for ELISPOT assay as described in Materials and Methods. Cytokine-positive immunospots were developed and the results are expressed as the number of immunospots +/−2 standard deviations for each experimental group. Data is representative of results derived from two independent experiments, each with five mice per group.

[2] = tested on: splenocytes from HLA-A*0201 transgenic C57BL/6 mice; experiment: IFN-γ ELISPOT of splenocytes restimulated with peptide; assay type: cell-based, mouse; details: for IFN-γ ELISPOT, RSV: splenocytes of HLA-Tg B6 mice primed and boosted i.n. with 10^4 pfu RSV-B1; for IFN-γ ELISPOT, RSV / IFN-γ ELISPOT, rAd-F0: restimulated with 2 µg peptide, representative of two experiments, five mice per group; for IFN-γ ELISPOT, rAd-F0: splenocytes of HLA-Tg B6 mice primed and boosted i.n. with 10^7 pfu rAd-F0
Method: as §1, §2, §3

HLA-A*0201 = target: T1, HLA-A*0201 (Homo sapiens, UniProt P04439, D140Y/D185E/D98H/E176V/E277Q/G131W/G231S/I119V/I121R/I166T/I218V/L300P/L318F/N151K/N90K/P208A/P217A/Q86G/Q94H/R138H/R169H/T345S); experiment: T2 cell-stabilization assay (T2-binding); details: for T2-binding Ratio of MFI: T2 cells 5×10^5, peptide 50 µg/mL + β2-microglobulin 5 µg/mL, 28°C 16–18 h, then brefeldin A 10 µg/mL 37°C 3 h, FITC anti-HLA-A2, flow cytometry, MFI relative to negative control HCV C55-74 (set as 1)
T1 construct: Human T2 cells (purchased from the American Type Culture Collection, ATCC) (ATCC No. CRL-1992) expressing the HLA-A*0201 gene; endogenous in cells; host or cells: human T2 cells (ATCC CRL-1992)
Method: T2 cells (5×10^5) cultured in 96-well U-bottom plates were incubated with the individual 9-mer synthetic peptides (50 µg/mL) and β2-microglobulin (5 µg/mL; Sigma-Aldrich) at 28°C for 16–18 hours. Subsequently, brefeldin A (10 µg/mL) was added and the cells were incubated at 37°C for another 3 hours, then washed and stained with fluorescence isothiocyanate (FITC)-conjugated mouse anti-human HLA-A2 antibody (SeroTec). Peptide-loaded T2 cells were acquired and analyzed on the FACScan flow cytometer using CellQuest software (Becton Dickinson). GLC-9 peptide was used as positive control (PC). The mean fluorescence intensity (MFI) represents the binding affinity of each peptide compared to MFI (set as MFI = 1) obtained from negative control (NC), which is T2 cells loaded with HCV peptide C55-74.
Twenty-five 9-mer synthetic peptides derived from the RSV F glycoprotein sequence presumed to encompass HLA-A*0201 binding motifs were synthesized (Table 1). Each was tested for its ability to bind HLA-A*0201 molecules by T2 cell-based binding assay (data not shown). The relative mean fluorescence intensity (MFI) obtained from the positive control (PC) peptide derived from Epstein-Barr virus capsid protein (GLC-9, a previously defined HLA-A*0201-restricted CTL epitope) was twofold (MFI = 1.96) compared to the baseline MFI = 1 obtained from the negative control (NC) treated with an unrelated peptide HCV C55-74 (a C57BL/6-specific CD4 epitope). […] The remaining peptides had no detectable binding to the HLA-A*0201 molecules. Apparently, the different MFIs generated by binding of RSV F-derived peptides to HLA-A*0201 reflects on the binding specificity of different peptides to a given HLA molecule.

splenocytic CD8+ T cells = experiment: CFSE proliferation of CD8+ T cells after in vitro peptide restimulation; assay type: cell-based, mouse; details: mice immunized s.c. twice with 50 µg peptide in IFA; splenocytes restimulated with 10 µg/mL peptide for 8 days
Method: (§4) To screen the immunodominance of epitopic peptide in the induction of RSV-F specific Th1/Th2 expression, HLA-A*0201 transgenic C57BL/6 mice were anesthetized with isoflurane and immunized with 1×10^7 pfu/50 µL of rAd-F0 or rAd-LacZ or 1×10^4 live RSV B1 via the intranasal (i.n.) route. Twenty days later, the mice were given booster immunization i.n. with the same dose. After 10 days of boost, mice were sacrificed and splenocytes were isolated for the cytokine ELISPOT assay. […] Mice body weight was monitored daily.
(§5) The splenocytes were isolated, labeled with 5-(6)-carboxyfluorescein diacetate succinimidyl ester (CFSE) (Sigma-Aldrich) and stimulated in vitro with 10 µg/mL of the synthetic peptides for 4 or 8 days. Proliferation of splenocytic CD4^+ and CD8^+ T cells was analyzed by flow cytometry (BD FACSCalibur) using PE-Cy5-labeled specific antibody against CD4 (eBioscience) or CD8 (eBioscience), respectively. Cell division index (CDI), a ratio of CFSE-diluted CD4^+ or CD8^+ T cells stimulated by peptide to CFSE-diluted unstimulated CD4^+ or CD8^+ T cells, was calculated as shown below; [drawing 1] […]
(§6) Figure 2 Epitope-specific CD4^+ and CD8^+ T-cell activation in peptide-immunized HLA-A*0201 transgenic mice. […] Proliferation of CD4^+ (A) or CD8^+ (B) lymphocytes in response to the different CD8 epitopes was analyzed by flow cytometry using anti-CD4 or CD8 antibodies conjugated with PE-Cy5. […]

splenocytic CD4+ T cells = experiment: CFSE proliferation of CD4+ T cells after in vitro peptide restimulation; assay type: cell-based, mouse; details: mice immunized s.c. twice with 50 µg peptide in IFA; splenocytes restimulated with 10 µg/mL peptide for 8 days
Method: as §4, §5, §6

## KIMTSKTDV [peptide 17, HLA-A*0201-restricted 9-mer synthetic peptide from F protein of RSV-B1 strain]
[1]
  IL-2 ELISPOT, RSV: 6.5 cytokine-secreting cells per 5×10^5 splenocytes
  IL-2 ELISPOT, rAd-F0: 24.5 cytokine-secreting cells per 5×10^5 splenocytes
[2]
  IFN-γ ELISPOT, RSV: 2.5 cytokine-secreting cells per 5×10^5 splenocytes
  IFN-γ ELISPOT, rAd-F0: 24.5 cytokine-secreting cells per 5×10^5 splenocytes
HLA-A*0201
  T2-binding Ratio of MFI: 0.95
Splenocytic CD8+ T cells
  proliferation of CD8+ T cells (cell division index): could not induce proliferation
Splenocytic CD4+ T cells
  proliferation of CD4+ T cells (cell division index): insignificant proliferation

## 9: HLA-A*0201-restricted 9-mer synthetic peptide from F protein of RSV-B1 strain (LLSTNKAVV) [compound 9]
[1]
  IL-2 ELISPOT, RSV: 2 cytokine-secreting cells per 5×10^5 splenocytes
  IL-2 ELISPOT, rAd-F0: 5 cytokine-secreting cells per 5×10^5 splenocytes
[2]
  IFN-γ ELISPOT, RSV: 1 cytokine-secreting cells per 5×10^5 splenocytes
  IFN-γ ELISPOT, rAd-F0: 27.5 cytokine-secreting cells per 5×10^5 splenocytes
HLA-A*0201
  T2-binding Ratio of MFI: 1.53

## 18: HLA-A*0201-restricted 9-mer synthetic peptide from F protein of RSV-B1 strain (SVGNTLYYV) [compound 18]
[1]
  IL-2 ELISPOT, RSV: 42 cytokine-secreting cells per 5×10^5 splenocytes
  IL-2 ELISPOT, rAd-F0: 0 cytokine-secreting cells per 5×10^5 splenocytes
[2]
  IFN-γ ELISPOT, RSV: 92.5 cytokine-secreting cells per 5×10^5 splenocytes
  IFN-γ ELISPOT, rAd-F0: 115 cytokine-secreting cells per 5×10^5 splenocytes
[2]; splenocytes of rAd-F0- or RSV B1-primed and boosted HLA-Tg B6 mice, high = over 100 spots, moderate = over 50 spots
  IFN-γ level in restimulated splenocytes (ELISPOT, text grading): over 100 spots
HLA-A*0201; T2 cell-based binding assay, baseline = negative control HCV C55-74, called modest binding affinity
  binding affinity, MFI higher than the baseline: ~10%
HLA-A*0201
  T2-binding Ratio of MFI: 1.29
